Experiments:
Estrogen receptor [1] = biological target: T1, Estrogen receptor (Homo sapiens, UniProt P03372)
T1 sequence (P03372 whole entry): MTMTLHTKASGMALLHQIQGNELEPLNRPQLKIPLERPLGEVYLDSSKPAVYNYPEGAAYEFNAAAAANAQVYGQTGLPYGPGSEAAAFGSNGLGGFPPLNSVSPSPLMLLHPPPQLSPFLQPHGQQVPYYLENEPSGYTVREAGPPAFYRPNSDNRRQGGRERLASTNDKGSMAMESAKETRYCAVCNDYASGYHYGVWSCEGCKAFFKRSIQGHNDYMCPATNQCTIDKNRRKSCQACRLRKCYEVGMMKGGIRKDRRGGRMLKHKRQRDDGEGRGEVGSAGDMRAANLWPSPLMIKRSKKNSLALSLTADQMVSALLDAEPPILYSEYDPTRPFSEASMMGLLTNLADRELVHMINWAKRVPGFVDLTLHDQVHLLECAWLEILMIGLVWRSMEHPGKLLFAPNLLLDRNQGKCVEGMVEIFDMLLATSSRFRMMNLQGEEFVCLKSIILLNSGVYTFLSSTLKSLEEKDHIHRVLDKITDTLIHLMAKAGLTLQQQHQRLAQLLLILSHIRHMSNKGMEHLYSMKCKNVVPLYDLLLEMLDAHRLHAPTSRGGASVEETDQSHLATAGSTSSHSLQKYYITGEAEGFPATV

Estrogen receptor [2] = biological target: T1, Estrogen receptor; remark: listed apart in the source
Description: Agonist activity at RST7-ERalpha (unknown origin) co-expressed with (ERE)TK-luciferase reporter plasmid transfected in human HepG2 cells incubated for 24 hrs by Renilla luciferase based reporter assay

EC50 (Estrogen receptor [1]): > 10 µM
EC50 (Estrogen receptor [2]): > 10 µM
SMILES: Oc1ccc(CNc2nc(Cl)nc3scc(-c4ccccc4)c23)cc1O
